Assay results reported in ChEMBL document CHEMBL1201862, “PubChem BioAssay data set” (2004).
The source made the active and inactive calls.

What was measured:
Assay type in all cases: functional
[1] = biological target: T1, Microphthalmia-associated transcription factor (Homo sapiens, UniProt O75030); test: reducers of TRPM1 reporter luminescence, concentration series – cell-based, SK-MEL-5, cherry-picked, set 3, MITF inhibitor project, dose response (AID 493073);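 also: SK-MEL-5 melanoma cells with luciferase driven by the MITF target TRPM1 promoter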
T1 sequence (O75030 whole entry): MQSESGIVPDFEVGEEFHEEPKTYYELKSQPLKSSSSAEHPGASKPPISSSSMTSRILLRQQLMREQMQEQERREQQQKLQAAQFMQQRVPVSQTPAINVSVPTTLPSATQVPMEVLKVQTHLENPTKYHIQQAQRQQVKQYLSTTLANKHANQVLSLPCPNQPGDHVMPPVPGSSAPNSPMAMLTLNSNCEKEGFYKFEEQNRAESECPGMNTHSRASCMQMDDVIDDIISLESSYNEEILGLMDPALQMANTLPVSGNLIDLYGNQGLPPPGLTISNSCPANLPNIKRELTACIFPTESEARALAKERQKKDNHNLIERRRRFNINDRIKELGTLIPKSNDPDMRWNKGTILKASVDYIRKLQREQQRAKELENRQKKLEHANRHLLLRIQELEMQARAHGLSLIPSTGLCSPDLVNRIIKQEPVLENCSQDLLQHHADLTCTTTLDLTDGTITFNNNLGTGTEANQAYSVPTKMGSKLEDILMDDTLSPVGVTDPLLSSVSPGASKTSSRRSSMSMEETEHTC

[2] = biological target: T2, Heat shock factor protein 1 (Mus musculus, UniProt P38532); test: decrease of HSF1-responsive luciferase luminescence – cell-based, NIH3T3, dose retest, confirmation (AID 2382);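 also: NIH3T3 fibroblasts with HSF1-driven luciferase reporter stressed by proteasome inhibitor MG132; luminescence from HSF1-driven luciferase expression after 8 hours of MG132 stress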
T2 sequence (P38532 whole entry): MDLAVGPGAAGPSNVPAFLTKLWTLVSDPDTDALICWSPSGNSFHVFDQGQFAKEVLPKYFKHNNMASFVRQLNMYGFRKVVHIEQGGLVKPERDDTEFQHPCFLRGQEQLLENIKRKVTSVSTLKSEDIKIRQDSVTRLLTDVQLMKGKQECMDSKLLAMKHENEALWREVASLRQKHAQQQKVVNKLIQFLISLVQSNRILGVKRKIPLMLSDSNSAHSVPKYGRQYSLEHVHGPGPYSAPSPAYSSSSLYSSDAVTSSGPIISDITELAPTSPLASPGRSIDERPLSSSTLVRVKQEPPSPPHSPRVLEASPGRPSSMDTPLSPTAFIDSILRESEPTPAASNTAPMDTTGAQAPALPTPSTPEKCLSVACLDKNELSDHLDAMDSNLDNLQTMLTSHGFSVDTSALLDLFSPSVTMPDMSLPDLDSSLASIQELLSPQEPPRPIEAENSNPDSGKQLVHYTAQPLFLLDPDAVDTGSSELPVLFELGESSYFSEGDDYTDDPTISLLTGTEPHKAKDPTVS

Genome polyprotein = Genome polyprotein (dengue virus type 2, UniProt P29990); test: flavivirus cap methylation enzyme inhibition – biochemical, confirmation dose response, primary screen (AID 588689)
[3] = biological target: Protein kinase C delta type (Homo sapiens, UniProt Q05655)
[4] = biological target: MAP/microtubule affinity-regulating kinase 3 (Homo sapiens, UniProt P27448);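 also: MARK3 affinity measured as one member of a kinome panel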
[5] = biological target: Mitogen-activated protein kinase kinase kinase kinase 4 (Homo sapiens, UniProt O95819)
[6] = biological target: Phosphorylase b kinase gamma catalytic chain, liver/testis isoform (Homo sapiens, UniProt P15735);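 also: PHKG2 measured as one member of a kinome-wide kinase panel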
[7] = biological target: Homeodomain-interacting protein kinase 4 (Homo sapiens, UniProt Q8NE63)
[8] = biological target: Cyclin-dependent kinase 5 (Homo sapiens, UniProt Q00535);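 also: CDK5 measured as one member of a kinase profiling panel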
Sequence of Cyclin-dependent kinase 5 (Q00535 whole entry): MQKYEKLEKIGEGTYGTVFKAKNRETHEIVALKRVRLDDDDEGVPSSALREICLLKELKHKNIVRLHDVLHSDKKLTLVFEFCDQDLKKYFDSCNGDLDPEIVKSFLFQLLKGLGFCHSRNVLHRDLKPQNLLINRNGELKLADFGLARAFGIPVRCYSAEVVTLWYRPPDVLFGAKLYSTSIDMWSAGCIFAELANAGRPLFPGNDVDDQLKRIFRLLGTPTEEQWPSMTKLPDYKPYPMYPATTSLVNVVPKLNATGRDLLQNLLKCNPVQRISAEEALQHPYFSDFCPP

[9] = biological target: 3-phosphoinositide-dependent protein kinase 1 (Homo sapiens, UniProt O15530);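 also: value comes from the Navigating the Kinome panel, PDPK1 member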
[10] = biological target: Homeodomain-interacting protein kinase 2 (Homo sapiens, UniProt Q9H2X6);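 also: measured within a kinome-wide kinase profiling panel, HIPK2 being one panel member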
[11] = biological target: Rho-associated protein kinase 1 (Homo sapiens, UniProt Q13464);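 also: measured within a broad kinome-wide panel profiling many kinases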
Sequence of Rho-associated protein kinase 1 (Q13464 whole entry): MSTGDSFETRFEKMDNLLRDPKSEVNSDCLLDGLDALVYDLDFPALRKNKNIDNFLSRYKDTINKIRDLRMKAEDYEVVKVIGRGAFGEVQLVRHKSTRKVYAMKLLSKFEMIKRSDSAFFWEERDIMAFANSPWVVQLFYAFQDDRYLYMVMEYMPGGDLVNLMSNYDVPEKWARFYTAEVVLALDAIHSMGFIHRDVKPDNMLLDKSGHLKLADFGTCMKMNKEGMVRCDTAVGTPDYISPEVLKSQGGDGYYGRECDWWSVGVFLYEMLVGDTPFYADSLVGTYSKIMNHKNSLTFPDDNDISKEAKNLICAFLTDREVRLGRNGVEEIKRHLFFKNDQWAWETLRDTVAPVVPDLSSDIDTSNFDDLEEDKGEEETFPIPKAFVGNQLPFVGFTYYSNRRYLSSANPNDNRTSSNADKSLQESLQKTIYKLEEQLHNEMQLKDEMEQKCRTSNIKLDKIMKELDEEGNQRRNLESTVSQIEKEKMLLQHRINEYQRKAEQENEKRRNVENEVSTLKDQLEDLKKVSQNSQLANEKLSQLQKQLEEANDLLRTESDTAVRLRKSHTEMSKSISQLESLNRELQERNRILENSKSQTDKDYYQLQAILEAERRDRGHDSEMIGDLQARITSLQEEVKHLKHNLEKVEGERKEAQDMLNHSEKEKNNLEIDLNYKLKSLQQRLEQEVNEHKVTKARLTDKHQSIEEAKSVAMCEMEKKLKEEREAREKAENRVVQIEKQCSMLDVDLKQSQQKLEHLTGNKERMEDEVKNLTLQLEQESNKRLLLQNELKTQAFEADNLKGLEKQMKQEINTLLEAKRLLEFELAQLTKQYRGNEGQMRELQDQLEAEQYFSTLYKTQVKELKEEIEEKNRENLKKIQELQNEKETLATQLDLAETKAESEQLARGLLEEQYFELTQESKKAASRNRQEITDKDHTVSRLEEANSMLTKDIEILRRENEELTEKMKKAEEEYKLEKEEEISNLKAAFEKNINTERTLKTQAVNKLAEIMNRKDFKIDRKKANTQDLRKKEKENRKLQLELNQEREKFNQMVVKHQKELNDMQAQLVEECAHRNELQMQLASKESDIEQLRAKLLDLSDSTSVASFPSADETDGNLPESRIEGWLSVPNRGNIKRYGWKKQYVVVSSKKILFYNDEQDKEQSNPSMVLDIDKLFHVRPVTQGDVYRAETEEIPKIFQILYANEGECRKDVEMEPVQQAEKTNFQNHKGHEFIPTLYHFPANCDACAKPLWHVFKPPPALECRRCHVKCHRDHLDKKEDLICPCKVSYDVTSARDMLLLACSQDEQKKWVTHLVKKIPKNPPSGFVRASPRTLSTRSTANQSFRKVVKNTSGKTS

[12] = biological target: Serine/threonine-protein kinase Nek2 (Homo sapiens, UniProt P51955)
Sequence of Serine/threonine-protein kinase Nek2 (P51955 whole entry): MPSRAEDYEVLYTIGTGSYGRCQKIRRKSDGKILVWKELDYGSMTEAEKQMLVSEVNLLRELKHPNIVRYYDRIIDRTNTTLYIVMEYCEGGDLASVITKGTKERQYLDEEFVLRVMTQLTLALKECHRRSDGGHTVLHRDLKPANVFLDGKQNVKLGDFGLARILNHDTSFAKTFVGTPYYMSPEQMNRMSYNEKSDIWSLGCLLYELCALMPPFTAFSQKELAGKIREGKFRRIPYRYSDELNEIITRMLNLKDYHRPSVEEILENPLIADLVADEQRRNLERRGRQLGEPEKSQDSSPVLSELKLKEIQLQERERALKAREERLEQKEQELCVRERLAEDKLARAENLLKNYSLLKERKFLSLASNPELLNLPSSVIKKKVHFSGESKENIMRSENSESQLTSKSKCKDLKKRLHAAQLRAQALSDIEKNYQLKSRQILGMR

[13] = biological target: Insulin-like growth factor 1 receptor (Homo sapiens, UniProt P08069); test: Navigating the Kinome. Panel member name: IGF1R
Sequence of Insulin-like growth factor 1 receptor (P08069 31-736 limits assumed): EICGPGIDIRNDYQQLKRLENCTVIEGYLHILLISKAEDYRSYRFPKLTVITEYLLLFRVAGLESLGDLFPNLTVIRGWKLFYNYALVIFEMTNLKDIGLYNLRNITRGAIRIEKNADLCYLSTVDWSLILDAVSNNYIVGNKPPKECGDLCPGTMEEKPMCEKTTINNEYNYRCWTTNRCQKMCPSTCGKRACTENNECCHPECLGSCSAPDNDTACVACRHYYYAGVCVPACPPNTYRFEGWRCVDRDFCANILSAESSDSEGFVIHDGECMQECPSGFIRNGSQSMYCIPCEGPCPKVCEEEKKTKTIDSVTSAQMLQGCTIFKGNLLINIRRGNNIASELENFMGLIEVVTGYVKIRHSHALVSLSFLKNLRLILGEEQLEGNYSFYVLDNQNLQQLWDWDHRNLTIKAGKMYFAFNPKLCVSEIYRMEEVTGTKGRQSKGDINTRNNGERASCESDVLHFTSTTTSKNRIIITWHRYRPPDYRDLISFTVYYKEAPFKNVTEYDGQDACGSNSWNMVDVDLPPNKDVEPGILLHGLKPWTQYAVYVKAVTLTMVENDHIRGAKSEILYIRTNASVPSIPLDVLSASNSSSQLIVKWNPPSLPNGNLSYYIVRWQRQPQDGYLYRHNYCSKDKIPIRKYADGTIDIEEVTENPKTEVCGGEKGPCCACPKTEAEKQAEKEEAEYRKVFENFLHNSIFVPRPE
Sequence of Insulin-like growth factor 1 receptor (P08069 741-1367 limits assumed): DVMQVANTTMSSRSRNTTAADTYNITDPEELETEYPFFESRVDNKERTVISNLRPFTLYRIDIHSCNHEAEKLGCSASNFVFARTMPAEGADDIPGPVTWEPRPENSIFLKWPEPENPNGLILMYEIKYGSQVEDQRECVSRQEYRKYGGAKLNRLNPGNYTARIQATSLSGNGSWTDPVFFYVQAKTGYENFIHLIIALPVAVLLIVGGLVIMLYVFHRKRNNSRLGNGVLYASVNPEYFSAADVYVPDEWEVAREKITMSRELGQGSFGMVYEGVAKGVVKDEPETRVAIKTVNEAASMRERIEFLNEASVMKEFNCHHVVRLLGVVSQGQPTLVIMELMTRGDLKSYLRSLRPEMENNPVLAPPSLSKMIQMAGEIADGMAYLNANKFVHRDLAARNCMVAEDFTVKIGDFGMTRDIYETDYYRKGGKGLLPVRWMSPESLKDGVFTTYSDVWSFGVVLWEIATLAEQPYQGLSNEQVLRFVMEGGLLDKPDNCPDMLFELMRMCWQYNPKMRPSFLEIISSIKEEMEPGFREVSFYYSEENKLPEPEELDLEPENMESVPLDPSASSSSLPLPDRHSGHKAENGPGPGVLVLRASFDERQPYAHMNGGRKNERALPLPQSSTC

[14] = biological target: Serine/threonine-protein kinase PAK 1 (Homo sapiens, UniProt Q13153)
Sequence of Serine/threonine-protein kinase PAK 1 (Q13153 whole entry): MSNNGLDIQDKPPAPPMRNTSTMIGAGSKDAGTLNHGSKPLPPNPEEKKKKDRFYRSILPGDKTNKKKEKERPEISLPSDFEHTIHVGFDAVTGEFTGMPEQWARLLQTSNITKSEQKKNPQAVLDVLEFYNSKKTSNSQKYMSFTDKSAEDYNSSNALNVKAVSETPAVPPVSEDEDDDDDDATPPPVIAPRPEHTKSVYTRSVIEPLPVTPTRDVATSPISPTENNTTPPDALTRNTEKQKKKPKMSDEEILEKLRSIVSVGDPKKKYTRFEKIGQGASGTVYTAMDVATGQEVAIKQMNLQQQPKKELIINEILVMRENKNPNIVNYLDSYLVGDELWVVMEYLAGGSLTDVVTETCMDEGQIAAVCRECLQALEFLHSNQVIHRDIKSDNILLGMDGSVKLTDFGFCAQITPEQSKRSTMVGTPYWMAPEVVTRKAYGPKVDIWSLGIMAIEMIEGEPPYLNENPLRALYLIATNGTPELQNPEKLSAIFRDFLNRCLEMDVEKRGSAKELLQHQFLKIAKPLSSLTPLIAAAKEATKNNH

[15] = biological target: Casein kinase II subunit alpha (Homo sapiens, UniProt P68400)
[16] = biological target: MAP kinase-activated protein kinase 5 (Homo sapiens, UniProt Q8IW41);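 also: measured as one member of a kinome panel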
[17] = biological target: Platelet-derived growth factor receptor alpha (Homo sapiens, UniProt P16234); test: Navigating the Kinome. Panel member name: PDGFRA
Sequence of Platelet-derived growth factor receptor alpha (P16234 whole entry): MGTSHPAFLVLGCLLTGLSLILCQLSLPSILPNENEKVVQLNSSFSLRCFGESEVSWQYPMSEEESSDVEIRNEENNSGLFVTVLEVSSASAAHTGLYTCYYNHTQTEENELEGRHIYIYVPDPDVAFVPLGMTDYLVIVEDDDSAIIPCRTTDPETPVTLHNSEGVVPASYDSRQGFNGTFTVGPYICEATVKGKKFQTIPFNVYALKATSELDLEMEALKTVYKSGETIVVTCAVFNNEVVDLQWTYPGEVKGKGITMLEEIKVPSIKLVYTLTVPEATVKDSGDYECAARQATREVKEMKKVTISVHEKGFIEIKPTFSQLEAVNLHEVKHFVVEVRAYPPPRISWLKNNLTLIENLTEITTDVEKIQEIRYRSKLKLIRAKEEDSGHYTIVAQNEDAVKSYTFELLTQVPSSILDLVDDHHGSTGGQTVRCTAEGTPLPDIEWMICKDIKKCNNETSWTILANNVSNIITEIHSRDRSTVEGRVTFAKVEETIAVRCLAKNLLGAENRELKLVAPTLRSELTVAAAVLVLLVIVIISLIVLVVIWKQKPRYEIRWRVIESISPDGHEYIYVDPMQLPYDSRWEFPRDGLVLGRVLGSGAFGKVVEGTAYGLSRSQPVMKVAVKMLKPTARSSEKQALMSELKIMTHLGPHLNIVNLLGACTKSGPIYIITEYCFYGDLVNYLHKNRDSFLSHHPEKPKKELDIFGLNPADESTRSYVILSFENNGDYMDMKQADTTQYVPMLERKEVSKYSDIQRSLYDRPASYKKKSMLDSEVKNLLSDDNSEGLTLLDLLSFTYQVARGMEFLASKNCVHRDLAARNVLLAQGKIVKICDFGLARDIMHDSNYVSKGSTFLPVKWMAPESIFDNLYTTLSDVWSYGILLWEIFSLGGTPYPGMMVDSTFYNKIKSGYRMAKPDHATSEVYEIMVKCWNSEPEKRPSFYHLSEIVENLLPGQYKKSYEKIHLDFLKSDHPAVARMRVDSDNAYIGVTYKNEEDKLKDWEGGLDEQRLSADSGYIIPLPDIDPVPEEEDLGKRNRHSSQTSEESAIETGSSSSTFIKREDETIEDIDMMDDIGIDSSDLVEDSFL

Structure (SMILES): COC(=O)CCS(=O)(=O)c1nc(-c2ccccc2)cc(C(F)(F)F)n1
- AC50 [1]: 5.85 µM (active)
- EC50 [2]: 9.59 µM (inconclusive)

Structure (SMILES): O=C(O)c1ccc(NC2=C(Cl)C(=O)c3ccccc3C2=O)cc1
- IC50 (Genome polyprotein): 7.76 µM (active)
- EC50 [2]: 6.24 µM (active)

Structure (SMILES): Cc1ccc2nccc(NC(=O)Nc3cccc(C(F)(F)F)n3)c2c1
- Ki [3]: > 7.94 µM (inactive)
- Ki [4]: > 6.31 µM (inactive)
- Ki [5]: > 2.51 µM (inactive)
- Ki [6]: > 5.01 µM (inactive)
- Ki [7]: 0.251 µM (active)
- Ki [8]: 0.316 µM (active)
- Ki [9]: > 3.98 µM (inactive)
- Ki [10]: 0.794 µM (active)
- Ki [11]: > 6.31 µM (inactive)
- Ki [12]: > 10 µM (inactive)
- Ki [13]: > 2 µM (inactive)
- Ki [14]: > 10 µM (inactive)
- Ki [15]: 0.251 µM (active)
- Ki [16]: > 1.58 µM (inactive)

Structure (SMILES): Cc1nn(C)c2sc3c(=O)[nH]cnc3c12
- Ki [8]: 79.4 µM (active)
- Ki [17]: 100 µM (active)

Structure (SMILES): Cc1c(/N=C2\C=CC(=O)c3ccccc32)c(=O)n(-c2ccccc2)n1C
- IC50 (Genome polyprotein): 88.6 µM (active)
- AC50 [1]: 5.26 µM (active)

Structure (SMILES): COc1cc2c(cc1F)C(c1ccccc1Cl)=Nc1c(n[nH]c1C)N2 [RG-1530]
- Ki [3]: 3.16 µM (active)
- Ki [4]: > 2.51 µM (inactive)
- Ki [5]: > 3.98 µM (inactive)
- Ki [6]: 3.16 µM (active)
- Ki [7]: > 7.94 µM (inactive)
- Ki [9]: 0.0501 µM (active)
- Ki [10]: > 3.16 µM (inactive)
- Ki [11]: > 2.51 µM (inactive)
- Ki [12]: > 6.31 µM (inactive)
- Ki [13]: > 1.26 µM (inactive)
- Ki [14]: 0.316 µM (active)
- Ki [17]: 0.316 µM (active)
- Ki [15]: 2.51 µM (active)
- Ki [16]: > 1.58 µM (inactive)
